According to patent US20250177566A1, “USE OF CHEMICAL EPIGENETIC MODIFIERS TO MODULATE GENE EXPRESSION” (The University of North Carolina at Chapel Hill, priority 2022, published 2025):

Molecular target: T1, BRD4 (Homo sapiens, UniProt O60885+P62942)
T1 construct: achieved via the accumulation of endogenous epigenetic machinery at the designed gRNA targeted gene locus; endogenous in cells; host or cells: HCT116 cells stably expressing dCas9 and MS2-FKBP*x2, transfected with CXCR4 or NT gRNA
Test: BRD4 ChIP-seq, HCT116
Format: cell-based
Text: Given that SLF*-CEMa facilitates gene activation via recruitment of BET proteins including BRD4, BRD4 enrichment at a specific targeted gene locus was investigated to further validate the mechanism of CEM207. Based on the alamarBlue cell viability assay performed with HEK293T and HCT116 cells, CEM207 can have different toxicity effects on different cell lines after 4 days of exposure. Specifically, HCT116 appeared to be more tolerant to CEM207 treatment. […] Based on the cell viability data, chromatin immunoprecipitation-qPCR (ChIP-qPCR) was performed in stably infected HCT116 cells. […] The signal change was measured between samples when only CEM207 or gRNA are present and those where both are present. […] To determine outlier significance, a “z-score” distribution was calculated by taking the scaled means of the x- and y-axis values and calculated P values for each point within this distribution. […]
ChIP-seq library preparation. […] Libraries were sequenced to a depth of 30 million […] (75-bp single-end reads) on an Illumina NextSeq 500.
ChIP-seq analyses. Reads from the sequencer were demultiplexed using bcl2fastq (v2.20.0). Sequencing adapters on reads were trimmed using cutadapt (v1.12) using options -a GATCGGAAGAGC (SEQ ID NO: 35) and—minimum-length 36 in […]. […]

T1 sequence (P62942 2-108 limits assumed, other chains not shown): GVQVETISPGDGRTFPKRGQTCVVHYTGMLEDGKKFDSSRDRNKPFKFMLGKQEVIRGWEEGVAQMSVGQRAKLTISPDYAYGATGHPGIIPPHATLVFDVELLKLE

For `CC[C@H](C(=O)N1CCCC[C@H]1C(=O)O[C@H](CCc1ccc(OC)c(OC)c1)c1cccc(OCC(=O)NCCOCCOCCNC(=O)C[C@@H]2N=C(c3ccc(Cl)cc3)c3c(sc(C)c3C)-n3c(C)nnc32)c1)c1cc(OC)c(OC)c(OC)c1` [CEM207, (R)-1-(3-((14-((S)-4-(4-Chlorophenyl)-2,3,9-trimethyl-6H-thieno[3,2-f][1,2,4]triazolo[4,3-a][1,4]diazepin-6-yl)-2,13-dioxo-6,9-dioxa-3,12-diazatetradecyl)oxy)phenyl)-3-(3,4-dimethoxyphenyl) propyl(S)-1-((S)-2-(3,4,5-trimethoxyphenyl)butanoyl) piperidine-2-carboxylate], the “BRD4 ChIP-seq signal at the CXCR4 locus” value (25 nM CEM207 + sgCXCR4) was “well-defined BRD4 signal peak at the CXCR4 locus” and the “BRD4 peaks having a log2 fold-change in signal less than two in either direction” value (off-target assessment, CEM207 or gRNA only vs both present) was 96.8%.
